Experimental data as given in patent US20100183542A1, “Synergism Between Activated Immune Cells and Conventional Cancer Therapies” (UNIVERSITY OF SOUTH ALABAMA, priority 2006, published 2010).

Tests used:
Hela cells [1] = experiment: Hela cells pre-sensitized with cytokines, 4 Gy gamma radiation, WST-1 on day 5 (Experiments 7, 8, 11, 12, 13); type: cell-based
Procedure: (§1) Hela cells were pre-sensitized for 2 days with each cytokine listed on FIG. 29. The pre-sensitized Hela cells were thereafter trypsinzed, washed, and irradiated with 4 Gy of gamma radiation. The irradiated cells were plated in 96-well plate at 5000 cells per well in 200 μl of complete medium. Cell viability was measured by WST-1 reagent on day 5.
as §1, with “by individual cytokines, combinations or all cytokines.” for “with each cytokine listed on FIG. 29.”, “harvested,” for “trypsinzed,”, “RPMI 1640” for “complete”, “assay” for “reagent”
Hela cells were pre-sensitized with various combinations of cytokines identified in FIG. 33. The pre-sensitized Hela cells were made single suspension and irradiated by 4 Gy of gamma radiation. The irradiated cells were plated in 96-well plate at 5000 cells per well in 200 μl RPMI 1640 medium. Cell viability was measured by WST-1 assay on day 5.
Hela cells were pre-sensitized for 2 days with CD4+ T cells, a combination of [IFN-γ/TNF-α/IL-2/Il-6], or a combination of all cytokines. The pre-sensitized cells were thereafter placed into a single suspension and irradiated by 4 Gy of gamma radiation. The irradiated cells were plated in 96-well plate at 5000 cells per well in 200 μl RPMI 1640 medium. Cell viability was measured by WST-1 assay on day 5.
Another experiment was performed similar to experiment 16, except that [IFN-γ/TNF-α] was used instead of the combination of [IFN-γ/TNF-α/Il-2/Il-6].

Hela cells [2] = experiment: Hela cells pre-sensitized with cytokines for 2 days, fresh medium 3 days, WST-1 on day 5 (Experiments 9, 10); type: cell-based; details: for effect on the maximum cytotoxic effect of IFN-γ: Experiment 9: in combination with IFN-γ
Procedure: Hela cells were pre-sensitized with IFN-γ, and IFN-γ in combination with other cytokines for 2 days. The pre-sensitized Hela cells were then cultured with fresh complete RPMI 1640 for another 3 days. Cell viability was measured by WST-1 assay on day 5.
The pre-sensitized Hela cells were cultured with fresh complete RPMI 1640 for another 3 days. Cell viability was measured by WST-1 assay on day 5.

Molecule: IFN-γ: cytokine
- contribution to enhanced effect of gamma irradiation (Hela cells [1]; Experiment 7: each cytokine 2 days, 4 Gy): major factor contributing to the enhanced effect of gamma irradiation
- synergistic effect with gamma radiation (Hela cells [1]; Experiment 11: 4 Gy): Synergistic effect

Molecule: GM-CSF: cytokine
- effect on the maximum cytotoxic effect of IFN-γ (Hela cells [2]): added effect

Molecule: TNF-α
- effect on the maximum cytotoxic effect of IFN-γ (Hela cells [2]): added effect

B1: IFN-γ: cytokine (protein, UniProt P01579 24-161, looked up)
Interferon gamma: QDPYVKEAENLKKYFNAGHSDVADNGTLFLGILKNWKEESDRKIMQSQIVSFYFKLFKNFKDDQSIQKSVETIKEDMNVKFFNSNKKKRDDFEKLTNYSVTDLNVQRKAIHELIQVMAELSPAAKTGKRKRSQMLFRG
- contribution to cytotoxicity of gamma irradiation (Hela cells [1]; Experiment 8: individual cytokines, combinations or all cytokines 2 days, 4 Gy): contributes to enhance cytotoxicity of gamma irradiation
- contribution to cytotoxicity (Hela cells [2]; Experiment 9: 2 days pre-sensitization, 3 days fresh medium): contributes to enhance cytotoxicity of gamma irradiation
